Experiment: molar heat capacity at constant pressure
Conditions: 101.33 kPa, Crystal, Small (less than 1 g) adiabatic calorimetry

O.O=C([O-])[C@H](O)[C@@H](O)CO.O=C([O-])[C@H](O)[C@@H](O)CO.[Cu+2] [copper(II) (2R,3S)-2,3,4-trihydroxybutanoate hydrate]
Conditions	molar heat capacity at constant pressure [J/K/mol]
77.95 K	157.12
78.77 K	158.43
79.58 K	159.75
81.05 K	161.91
83.23 K	165.7
85.3 K	168.87
87.33 K	172.05
89.3 K	175.55
91.24 K	178.89
93.14 K	182.28
95.01 K	185.29
96.85 K	188.44
98.65 K	191.21
100.44 K	194.62
102.18 K	197.16
103.92 K	200.13
105.63 K	203.01
107.32 K	205.34
109 K	207.51
110.66 K	210.17
112.29 K	213.09
113.91 K	215.33
115.53 K	217.99
117.12 K	220.64
118.7 K	222.67
120.28 K	224.56
121.83 K	227.52
123.37 K	230.1
124.9 K	231.86
127.77 K	236.46
132.03 K	242.38
136.29 K	248.21
140.39 K	253.18
144.49 K	258.87
148.5 K	263.42
152.44 K	269.25
156.37 K	273.65
160.22 K	278.91
163.99 K	283.6
167.76 K	289.57
171.53 K	294.4
175.22 K	298.81
178.91 K	303.93
182.51 K	308.62
186.04 K	314.59
189.63 K	319.74
193.17 K	324.58
196.61 K	329.37
200.05 K	333.92
203.48 K	338.93
206.76 K	344.03
210.14 K	349.72
213.41 K	353.68
216.7 K	358.82
219.87 K	365.27
223.07 K	370.33
226.27 K	374.9
229.39 K	380.28
232.43 K	385.56
235.45 K	390.94
238.48 K	396.17
241.43 K	401.58
244.3 K	406.42
247.25 K	410.96
250.17 K	415.09
253.07 K	420.05
255.94 K	424.32
258.81 K	430.57
261.59 K	435.83
264.38 K	439.95
267.25 K	446.35
269.95 K	449.9
272.74 K	455.45
275.44 K	460.56
278.15 K	465.27
280.87 K	471.63
283.46 K	476.96
286.11 K	481.85
288.64 K	486.29
291.26 K	492.12
293.8 K	496.38
296.18 K	501.64
298.72 K	506.76
301.34 K	511.59
304.73 K	517.6
308.01 K	525.08
311.68 K	533.37
315.35 K	539.96
318.3 K	546.62
321.22 K	553.21
324.17 K	560.99
327.09 K	567.58
330.19 K	573.7
333.38 K	581.34
336.12 K	586.57
338.87 K	593.18
341.62 K	602.58
344.26 K	609.21
346.73 K	617.4
349.06 K	625.08
351.28 K	633.61
353.44 K	639.41
355.51 K	652.09

Source: the NIST ThermoML archive (doi:10.1016/j.tca.2005.12.008)
